Measured values from patent US11459338B2, “Heterocyclic compounds as PRMT5 inhibitors” (JUBILANT EPISCRIBE LLC, priority 2018, dated 2022).

Key:
PRMT5/MEP50 = molecular target: T1, PRMT5/MEP50 (Homo sapiens, UniProt O14744); assay: PRMT5/MEP50 enzyme assay on peptide substrates (3H-SAM Flashplate); type: biochemical; details: PRMT5/MEP50 10 nM, H4 1-15aa peptide 100 nM, 3H-SAM 1 μM
T1 construct: Full-length human PRMT5 (NP_006100)
Excerpt: General materials like S-adenocylmethionine (SAM), S-adenosylhomocysteine (SAH), Tris-HCl, DTT, […] (BSA) and Tween-20 were purchased from Sigma-Aldrich. 3H-SAM and 384-well streptavidin Flashplates were purchased from Perkin Elmer. Substrates that were used were Peptide representative of human Histone 4 residues 1-15 which was purchased from Rockland antibodies and assays.
PRMT5/MEP50 Enzyme assay on Peptide Substrates.
The assays were all performed in a buffer consisting of 50 mMTris-HCl, pH 8, 1 mM DTT, 0.01% BSA, 0.01% Tween-20, prepared on the day of use. Test compounds were diluted 3-fold in assay buffer (final DMSO concentration of 1%) and added into a 384-well OptiPlate (PerkinElmer, #6007290). A cocktail (10 μL) of PRMT5/MEP50 enzyme and the peptide was added to the wells. The compounds were allowed to incubate with PRMT5/MEP50 for 30 min at room temperature, then 5 μL of ^3H-SAM was added to initiate the reaction. The final concentrations of the components were as follows: PRMT5/MEP50-10 nM, H4, 1-15aa peptide-100 nM, ^3H-SAM-1 μM. The assays were stopped by the addition of 1 mM SAH. 25 μL of the reaction from the 384-well OptiPlate was then transferred to a 384-well Flashplate and the biotinylated peptides were allowed to bind to the streptavidin surface for at least 1 h, before being washed twice with 50 mMTris-HCl, pH 8, 0.1% Tween-20. The plates were then read in a PerkinElmer Topcount plate reader to measure the quantity of ^3H-labeled peptide bound to the Flashplate surface measured as disintegrations per minute (dpm), also referred to as counts per minute (cpm).
The IC50 values were calculated using a 4-parameter variable slope fit algorithm (cpm—counts per minute, cmpd—signal in assay well, and cpmmax and cpmmin mare the respective minimum and maximum signal controls).

Z-138 cells = assay: Z-138 long term proliferation assay (Cell Titer Glo); type: cell-based; details: Homo sapiens, 192 h; Z-138 cells, cell viability, day 8; read-out: PRMT5 Z138 GI50 Day 8 μM
Experimental: A compound source plate was prepared by performing ten-point 3-fold dilution in DMSO, such that the final top concentration of the compound was 10 μM, and DMSO was 0.3%. The total volume of compounds added was 20 μL. The cells were incubated for 96 h at 37° C., 5% CO2. […] The cells were re-treated with the compounds and incubated for an additional four days. Cell viability was measured on both day 4 and day 8, by adding 25 μL of Cell Titer Glo reagent to an equal volume of cell suspension. Luminescence was read on a PerkinElmer Victor3 multiplate reader. The concentration of compound inhibiting cell viability by 50% was determined using a 4-parameter, variable slope fit of the normalized dose response curves.

T1 sequence (O14744 whole entry): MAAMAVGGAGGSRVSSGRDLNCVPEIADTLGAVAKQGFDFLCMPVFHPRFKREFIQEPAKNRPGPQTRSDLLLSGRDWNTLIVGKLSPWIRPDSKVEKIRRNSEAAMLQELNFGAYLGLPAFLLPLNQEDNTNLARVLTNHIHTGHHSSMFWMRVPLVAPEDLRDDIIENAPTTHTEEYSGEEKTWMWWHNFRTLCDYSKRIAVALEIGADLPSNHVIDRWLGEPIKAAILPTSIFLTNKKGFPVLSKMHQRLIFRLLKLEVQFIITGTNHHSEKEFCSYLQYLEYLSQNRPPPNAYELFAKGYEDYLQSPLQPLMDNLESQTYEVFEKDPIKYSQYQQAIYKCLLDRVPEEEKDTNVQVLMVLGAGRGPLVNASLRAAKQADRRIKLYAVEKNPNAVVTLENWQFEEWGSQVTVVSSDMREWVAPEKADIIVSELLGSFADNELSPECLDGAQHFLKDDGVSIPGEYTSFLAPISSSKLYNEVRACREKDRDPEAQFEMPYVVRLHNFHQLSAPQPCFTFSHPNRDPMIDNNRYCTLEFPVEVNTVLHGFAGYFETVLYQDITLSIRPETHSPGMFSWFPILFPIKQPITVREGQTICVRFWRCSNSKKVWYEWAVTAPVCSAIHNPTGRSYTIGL
T1 sequence (Q9BQA1 whole entry partner): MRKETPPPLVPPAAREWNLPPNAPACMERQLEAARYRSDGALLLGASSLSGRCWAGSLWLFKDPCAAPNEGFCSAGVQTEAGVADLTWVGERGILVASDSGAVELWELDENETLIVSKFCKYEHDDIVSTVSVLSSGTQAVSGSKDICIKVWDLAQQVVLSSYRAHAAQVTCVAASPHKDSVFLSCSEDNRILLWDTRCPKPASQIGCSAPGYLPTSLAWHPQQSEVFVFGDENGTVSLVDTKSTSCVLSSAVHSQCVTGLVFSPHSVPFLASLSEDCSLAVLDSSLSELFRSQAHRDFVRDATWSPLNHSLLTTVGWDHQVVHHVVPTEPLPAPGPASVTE

Row | Compound | IC50 (PRMT5/MEP50) [nM] | GI50 (Z-138 cells) [nM]
1 | O=C(NC[C@H](O)[C@@H](O)CN1CCc2ccccc2C1)c1cn2cc(-c3cnn([C@@H]4CCOC4)c3)ccc2n1 [Example 79, N-((2S,3S)-4-(3,4-dihydroisoquinolin-2(1H)-yl)-2,3-dihydroxybutyl)-6-(1-((R)-tetrahydrofuran-3-yl)-1H-pyrazol-4-yl)imidazo[1,2-a]pyridine-2-carboxamide] | 10 to 1000 | 10 to 1000
2 | Cn1ccc(-c2ccc3nc(C(=O)NC[C@H](O)[C@@H](O)CN4CCc5ccccc5C4)cn3c2)cc1=O [Example 80, N-((2S,3S)-4-(3,4-dihydroisoquinolin-2(1H)-yl)-2,3-dihydroxybutyl)-6-(1-methyl-2-oxo-1,2-dihydropyridin-4-yl)imidazo[1,2-a]pyridine-2-carboxamide] | 10 to 1000 | 10 to 1000
3 | Cn1cc(-c2ccc3nc(C(=O)NC[C@H](O)[C@@H](O)CN4CCc5ccccc5C4)cn3c2)cn1 [Example 81, N-((2S,3S)-4-(3,4-dihydroisoquinolin-2(1H)-yl)-2,3-dihydroxybutyl)-6-(1-methyl-1H-pyrazol-4-yl)imidazo[1,2-a]pyridine-2-carboxamide] | 10 to 1000 | 10 to 1000
4 | Cn1cc(-c2ccc3nc(C(=O)NC[C@H](O)CN4CCc5cc(F)ccc5C4)cn3c2)cn1 [Example 82, (S)—N-(3-(6-fluoro-3,4-dihydroisoquinolin-2(1H)-yl)-2-hydroxypropyl)-6-(1-methyl-1H-pyrazol-4-yl)imidazo[1,2-a]pyridine-2-carboxamide] | 1000 to 5000 | 1000 to 5000
5 | O=C(NC[C@H](O)CN1CCc2cc(F)ccc2C1)c1cn2nc(C(F)(F)F)ccc2n1 [Example 83, (S)—N-(3-(6-fluoro-3,4-dihydroisoquinolin-2(1H)-yl)-2-hydroxypropyl)-6-(trifluoromethyl)imidazo[1,2-b]pyridazine-2-carboxamide] | > 5000 | > 5000
6 | O=C(NC[C@H](O)CN1CCc2cc(F)ccc2C1)c1cn2cc(C(F)(F)F)ncc2n1 [Example 84, (S)—N-(3-(6-fluoro-3,4-dihydroisoquinolin-2(1H)-yl)-2-hydroxypropyl)-6-(trifluoromethyl)imidazo[1,2-a]pyrazine-2-carboxamide] | 1000 to 5000 | 1000 to 5000
7 | Cn1ccc(-c2cn3cc(C(=O)NC[C@H](O)CN4CCc5cc(F)ccc5C4)nc3cn2)cc1=O [Example 85, (S)—N-(3-(6-fluoro-3,4-dihydroisoquinolin-2(1H)-yl)-2-hydroxypropyl)-6-(1-methyl-2-oxo-1,2-dihydropyridin-4-yl)imidazo[1,2-a]pyrazine-2-carboxamide] | 1000 to 5000 | 1000 to 5000
8 | CN(C[C@H](O)CN1CCc2ccccc2C1)C(=O)c1cn2cc(C(F)(F)F)ccc2n1 [Example 88, (R)—N-(3-(3,4-dihydroisoquinolin-2(1H)-yl)-2-hydroxypropyl)-N-methyl-6-(trifluoromethyl)imidazo[1,2-a]pyridine-2-carboxamide] | 10 to 1000 | 10 to 1000
9 | CN(C[C@H](O)CN1CCc2ccccc2C1)C(=O)c1cn2cc(C(F)(F)F)ncc2n1 [Example 89, (R)—N-(3-(3,4-dihydroisoquinolin-2(1H)-yl)-2-hydroxypropyl)-N-methyl-6-(trifluoromethyl)imidazo[1,2-a]pyrazine-2-carboxamide] | 10 to 1000 | 10 to 1000
10 | CN(C[C@H](O)CN1CCc2ccccc2C1)C(=O)c1cc2nc(C(F)(F)F)ccn2n1 [Example 90, (R)—N-(3-(3,4-dihydroisoquinolin-2(1H)-yl)-2-hydroxypropyl)-N-methyl-5-(trifluoromethyl)pyrazolo[1,5-a]pyrimidine-2-carboxamide] | 1000 to 5000 | > 5000
11 | CN(C[C@H](O)CN1CCc2ccccc2C1)C(=O)c1cn2nc(C(F)(F)F)ccc2n1 [Example 91, (R)—N-(3-(3,4-dihydroisoquinolin-2(1H)-yl)-2-hydroxypropyl)-N-methyl-6-(trifluoromethyl)imidazo[1,2-b]pyridazine-2-carboxamide] | 1000 to 5000 | > 5000
12 | CN(C[C@H](O)CN1CCc2ccccc2C1)C(=O)c1cn2cc(-c3cnn(C)c3)ncc2n1 [Example 92, (R)—N-(3-(3,4-dihydroisoquinolin-2(1H)-yl)-2-hydroxypropyl)-N-methyl-6-(1-methyl-1H-pyrazol-4-yl)imidazo[1,2-a]pyrazine-2-carboxamide] | 10 to 1000 | 1000 to 5000
13 | CN(C[C@H](O)CN1CCc2ccccc2C1)C(=O)c1cn2cc(-c3ccc(=O)n(C)c3)ncc2n1 [Example 94, (R)—N-(3-(3,4-dihydroisoquinolin-2(1H)-yl)-2-hydroxypropyl)-N-methyl-6-(1-methyl-6-oxo-1,6-dihydropyridin-3-yl)imidazo[1,2-a]pyrazine-2-carboxamide] | 1000 to 5000 | 1000 to 5000

Continued, in another order:

Row | IC50 (PRMT5/MEP50) [nM] | Compound | GI50 (Z-138 cells) [nM]
14 | 10 to 1000 | CN(C[C@H](O)CN1CCc2ccccc2C1)C(=O)c1cn2cc(-c3ccc(C#N)cc3)ncc2n1 [Example 95, (R)-6-(4-cyanophenyl)-N-(3-(3,4-dihydroisoquinolin-2(1H)-yl)-2-hydroxypropyl)-N-methylimidazo[1,2-a]pyrazine-2-carboxamide] | 10 to 1000
15 | 10 to 1000 | O=C(NCC(O)CNC1Cc2ccccc2C1)c1cn2cc(C3CCOCC3)ccc2n1 (stereo not drawn) [Example 97, N-(3-((2,3-dihydro-1H-inden-2-yl)amino)-2-hydroxypropyl)-6-(tetrahydro-2H-pyran-4-yl)imidazo[1,2-a]pyridine-2-carboxamide] | 10 to 1000
16 | 10 to 1000 | CC(=O)N1CCC(c2ccc3nc(C(=O)NCC(O)CNC4Cc5ccccc5C4)cn3c2)CC1 (stereo not drawn) [Example 98, 6-(1-acetylpiperidin-4-yl)-N-(3-((2,3-dihydro-1H-inden-2-yl)amino)-2-hydroxypropyl)imidazo[1,2-a]pyridine-2-carboxamide] | 10 to 1000
17 | 10 to 1000 | Cn1ccc(-c2ccc3nc(C(=O)NCC(O)CNC4Cc5ccccc5C4)cn3c2)cc1=O (stereo not drawn) [Example 99, N-(3-((2,3-dihydro-1H-inden-2-yl)amino)-2-hydroxypropyl)-6-(1-methyl-2-oxo-1,2-dihydropyridin-4-yl)imidazo[1,2-a]pyridine-2-carboxamide] | 10 to 1000
18 | 1000 to 5000 | O=C(NCC(O)CN1CCc2ccccc2C1)c1cn2c(n1)CCCC2 (stereo not drawn) [Example 101, N-(3-(3,4-dihydroisoquinolin-2(1H)-yl)-2-hydroxypropyl)-5,6,7,8-tetrahydroimidazo[1,2-a]pyridine-2-carboxamide] | > 5000
19 | 10 to 1000 | O=C(NC[C@H](O)[C@@H](O)CN1CCc2ccccc2C1)c1cn2c(n1)CCC(C(F)(F)F)C2 (stereo partly drawn) [Example 117, N-((2S,3S)-4-(3,4-dihydroisoquinolin-2(1H)-yl)-2,3-dihydroxybutyl)-6-(trifluoromethyl)-5,6,7,8-tetrahydroimidazo[1,2-a]pyridine-2-carboxamide] | 10 to 1000
20 | 10 to 1000 | CN(C[C@H](O)CN1CCc2ccccc2C1)C(=O)c1cn2c(n1)CCC(C(F)(F)F)C2 (stereo partly drawn) [Example 119] | 10 to 1000
21 | 10 to 1000 | Cn1cc([C@H]2CCc3nc(C(=O)NC[C@H](O)CN4CCc5ccccc5C4)cn3C2)cn1 [Example 120A, (R)—N—((S)-3-(3,4-dihydroisoquinolin-2(1H)-yl)-2-hydroxypropyl)-6-(1-methyl-1H-pyrazol-4-yl)-5,6,7,8-tetrahydroimidazo[1,2-a]pyridine-2-carboxamide] | 10 to 1000
